These results are taken from ChEMBL document CHEMBL5532757, “Design, synthesis, and biological evaluation of 1,2,4-oxadiazole-based derivatives as multitarget anti-Alzheimer agents” (RSC Med Chem, 2024).

Counter-ions that a name gives are not always drawn. The source made the active and inactive calls. The calls are words filed in the database; no cut-off is given here.

Series [1] addresses T1, Acetylcholinesterase (Homo sapiens, UniProt P22303). The experiment in a line: Potency index, ratio of donepezil IC50 to test compound IC50 for inhibition of AChE (unknown origin) using acetylthiocholine iodide as substrate incubated for 15 mins by DTNB reagent based ELISA. On the technique in general: An ELISA detects its analyte on a solid surface through an enzyme-linked reagent.

Series [2] addresses T2, Amine oxidase [flavin-containing] A (Homo sapiens, UniProt P21397).
T2 sequence (P21397 whole entry): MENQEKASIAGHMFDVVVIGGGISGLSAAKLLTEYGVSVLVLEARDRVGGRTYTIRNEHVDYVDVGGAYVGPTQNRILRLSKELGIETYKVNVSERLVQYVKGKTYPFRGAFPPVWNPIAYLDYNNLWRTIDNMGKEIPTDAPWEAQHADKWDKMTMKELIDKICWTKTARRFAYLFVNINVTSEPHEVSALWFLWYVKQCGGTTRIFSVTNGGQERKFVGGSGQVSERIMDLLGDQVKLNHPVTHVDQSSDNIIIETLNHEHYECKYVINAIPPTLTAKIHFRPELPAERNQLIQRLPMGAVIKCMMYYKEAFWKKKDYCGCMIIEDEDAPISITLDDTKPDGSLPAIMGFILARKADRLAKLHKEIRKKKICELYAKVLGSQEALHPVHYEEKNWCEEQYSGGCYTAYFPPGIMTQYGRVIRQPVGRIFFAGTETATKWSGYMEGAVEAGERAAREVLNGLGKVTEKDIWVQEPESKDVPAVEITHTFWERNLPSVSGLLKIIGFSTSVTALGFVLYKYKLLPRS
The experiment in a line: Inhibition of MAO-A (unknown origin) measured after 30 to 90 sec by absorbance based assay. The conditions noted are these: for inhibition (INH): human, time 30-90 sec.

The target of series [3] is T3, Cholinesterase (Homo sapiens, UniProt P06276). Nature of the series: Inhibition of BChE (unknown origin) using butyrylthiocholine iodide as substrate incubated for 15 mins by DTNB reagent based ELISA.
T3 sequence (P06276 whole entry): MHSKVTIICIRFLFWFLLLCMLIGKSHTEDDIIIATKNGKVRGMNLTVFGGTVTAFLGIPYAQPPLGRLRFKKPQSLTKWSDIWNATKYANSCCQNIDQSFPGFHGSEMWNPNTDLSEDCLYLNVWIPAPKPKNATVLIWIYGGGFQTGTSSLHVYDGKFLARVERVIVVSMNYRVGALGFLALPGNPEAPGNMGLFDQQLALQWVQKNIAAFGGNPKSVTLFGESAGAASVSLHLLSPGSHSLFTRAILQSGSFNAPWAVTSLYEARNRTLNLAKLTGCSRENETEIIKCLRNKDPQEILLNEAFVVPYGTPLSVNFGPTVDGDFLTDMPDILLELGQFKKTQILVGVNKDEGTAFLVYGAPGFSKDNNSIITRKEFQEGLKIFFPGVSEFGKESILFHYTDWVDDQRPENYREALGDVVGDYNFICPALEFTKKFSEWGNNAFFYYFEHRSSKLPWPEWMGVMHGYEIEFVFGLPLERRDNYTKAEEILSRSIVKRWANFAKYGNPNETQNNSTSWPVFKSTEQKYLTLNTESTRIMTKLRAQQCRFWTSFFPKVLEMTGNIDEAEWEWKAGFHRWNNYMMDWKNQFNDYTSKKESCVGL
Series [4] concerns the target T4, Amine oxidase [flavin-containing] B (Homo sapiens, UniProt P27338).
T4 sequence (P27338 whole entry): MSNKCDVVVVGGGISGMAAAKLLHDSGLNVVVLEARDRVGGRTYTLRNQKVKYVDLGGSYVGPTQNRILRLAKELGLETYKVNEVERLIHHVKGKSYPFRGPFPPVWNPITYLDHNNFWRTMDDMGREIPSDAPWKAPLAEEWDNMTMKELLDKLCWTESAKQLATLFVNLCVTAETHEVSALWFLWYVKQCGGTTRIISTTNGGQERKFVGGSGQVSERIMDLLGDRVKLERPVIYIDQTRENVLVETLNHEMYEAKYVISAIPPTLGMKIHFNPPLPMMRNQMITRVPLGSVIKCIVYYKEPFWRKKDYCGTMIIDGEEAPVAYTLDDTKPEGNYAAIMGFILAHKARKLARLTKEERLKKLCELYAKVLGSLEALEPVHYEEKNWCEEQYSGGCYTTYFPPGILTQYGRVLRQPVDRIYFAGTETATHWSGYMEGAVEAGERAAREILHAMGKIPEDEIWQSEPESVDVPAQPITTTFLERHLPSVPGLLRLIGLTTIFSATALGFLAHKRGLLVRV
The experiment in a line: Inhibition of human recombinant MAO-B expressed in baculovirus infected BTI insect cells measured after 30 to 90 sec by absorbance based assay. As to conditions: for inhibition (INH): human, bti, time 30-90 sec.

Series [5] can be described thus: Antioxidant activity assessed as DPPH radical scavenging activity measured after 30 mins by spectrophotometric analysis. Type of series: functional. A general note: The DPPH test is a chemical assay of radical scavenging.
Series [6] can be described thus: Selectivity index, ratio of IC50 for inhibition of BChE (unknown origin) using butyrylthiocholine iodide as substrate to IC50 for inhibition of AChE (unknown origin) using acetylthiocholine iodide as substrate.
For series [7], the target named is T1, Acetylcholinesterase. The experiment in a line: Inhibition of AChE (unknown origin) using acetylthiocholine iodide as substrate incubated for 15 mins by DTNB reagent based ELISA.
Series [8] deals with T3, Cholinesterase. The experiment in a line: Inhibition of human BChE using butyrylthiocholine iodide as substrate preincubated for 5 mins followed by substrate addition and measured after 2 mins by absorbance based microplate reader.
Series [9] addresses T1, Acetylcholinesterase. Nature of the series: Inhibition of human recombinant AChE using acetylthiocholine iodide as substrate preincubated for 5 mins followed by substrate addition and measured after 2 mins by absorbance based microplate reader.

T1 sequence (P22303 whole entry): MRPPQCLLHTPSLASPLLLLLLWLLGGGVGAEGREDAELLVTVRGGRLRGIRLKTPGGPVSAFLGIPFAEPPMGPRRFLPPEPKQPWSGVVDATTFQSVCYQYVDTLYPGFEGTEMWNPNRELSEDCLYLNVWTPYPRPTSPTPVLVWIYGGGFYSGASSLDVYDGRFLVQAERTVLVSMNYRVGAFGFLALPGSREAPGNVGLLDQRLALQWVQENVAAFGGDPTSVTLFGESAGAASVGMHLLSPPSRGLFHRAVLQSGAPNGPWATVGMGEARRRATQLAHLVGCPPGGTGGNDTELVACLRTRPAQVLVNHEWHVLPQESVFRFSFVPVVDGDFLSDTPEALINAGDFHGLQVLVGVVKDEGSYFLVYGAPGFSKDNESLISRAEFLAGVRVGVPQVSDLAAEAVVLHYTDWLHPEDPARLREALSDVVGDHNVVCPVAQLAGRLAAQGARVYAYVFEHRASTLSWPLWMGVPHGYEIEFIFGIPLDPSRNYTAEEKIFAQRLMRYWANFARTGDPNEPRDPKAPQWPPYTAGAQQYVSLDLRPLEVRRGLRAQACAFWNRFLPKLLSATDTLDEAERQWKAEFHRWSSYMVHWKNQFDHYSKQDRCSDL

With `CCCNC(C)C(=O)Nc1c(C)csc1-c1nc(-c2ccccc2N)no1` (centres undefined), the Ratio IC50 came out at 1.01 on Acetylcholinesterase [1] and 449 in series [6]. Moreover, the IC50 (commonly the concentration that inhibits the measured activity by half) in series [2] is 248 µM; on Cholinesterase [3] it was 54.5 µM; in series [4] it was 289 µM; in series [5] it was 959 µM; against Acetylcholinesterase [7] it was 0.121 µM.
For `Cc1noc(-c2ccc(N)cc2)n1`, the Ratio IC50 on Acetylcholinesterase [1] came to 1.01; in series [6], 1320. For the same molecule, the “inhibition (INH)” value in series [2] and in series [4] was “Not Active” each time. Besides, the half-inhibitory concentration (IC50) was found to be 138 µM against Cholinesterase [3], 105 µM in series [5] and 0.104 µM on Acetylcholinesterase [7].
Turning to `O=C1O[C@H]([C@@H](O)CO)C(O)=C1O` [ASCORBIC ACID], the half-inhibitory concentration (IC50) in series [5] amounted to 74.5 µM.
Take `Cc1cc(=O)oc2cc(OCc3ccc(-c4noc([C@@H]5CCCN5)n4)cc3)ccc12`: the values for the IC50 on Cholinesterase [8] and at Acetylcholinesterase [9] were 8.17 µM and 77.6 µM, respectively.
Turning to `CCCNC(C)C(=O)Nc1c(C)csc1-c1nc(-c2ccccc2)no1` (centres undefined), the Ratio IC50 at Acetylcholinesterase [1] was determined as 1.01; in series [6], 325. The IC50 in [2] was 380 µM; at Cholinesterase [3], 33.2 µM; in [4] it was 225 µM; in [5] it was 1150 µM; against Acetylcholinesterase [7], 0.102 µM.
Take `Cc1cc(NS(=O)(=O)c2ccc(-n3cc(COc4ccccc4-c4nc(Cc5ccccc5)no4)nn3)cc2)no1`: on Acetylcholinesterase [1], the Ratio IC50 amounted to 1.01. The IC50 in series [2] is 533 µM; at Acetylcholinesterase [7], 0.103 µM. Besides, the inhibition result on Cholinesterase [3] is “inactive”. The “inhibition (INH)” value in series [4] is on record as “Not Active”. Also, the result in [5] was inactive.
On to `CCCCOc1cc(-c2nc(C)no2)ccc1N`, for which the Ratio IC50 turned out to be 1.01 at Acetylcholinesterase [1] and 3010 in [6]. Further, the “inhibition (INH)” value in series [2] and in series [4] was “Not Active” each time. Further, the IC50 stood at 47.6 µM against Cholinesterase [3] and 0.016 µM against Acetylcholinesterase [7]. Moreover, the outcome in series [5] was inactive.
In the case of `CC(CCCCn1c(=O)c2c(ncn2C)n(C)c1=O)=NNC(=O)COc1ccccc1-c1nc(-c2ccccc2)no1`, the Ratio IC50 worked out at 1.01 at Acetylcholinesterase [1] and 159 in [6]. The “inhibition (INH)” value in series [2] and in series [4] was “Not Active” each time. The IC50 on Cholinesterase [3] turned out to be 15 µM; against Acetylcholinesterase [7] it was 0.094 µM. In addition, in series [5], the outcome was inactive.
In the case of `Nc1ccc(-c2nc(-c3ccccc3N)no2)cc1`, the “inhibition (INH)” value in series [2] and in series [4] was “Not Active” throughout. Moreover, the IC50 against Cholinesterase [3] was determined as 85.6 µM; against Acetylcholinesterase [7] it was 0.201 µM. Further, the outcome in series [5] was inactive. Besides, the Ratio IC50 in series [6] is 427.
Turning to `CC(CCCCn1c(=O)c2c(ncn2C)n(C)c1=O)=NNC(=O)COc1ccccc1-c1nc(Cc2ccccc2)no1`, the concentration for half-maximal inhibition (IC50) in series [2] came to 957 µM. The inhibition entry on Cholinesterase [3] and on Acetylcholinesterase [7] was “inactive” each time. The “inhibition (INH)” value in series [4] is on record as “Not Active”. Moreover, the result in series [5] was inactive.
Consider `CCCCOc1cc(-c2nc(-c3ccccc3)no2)ccc1N`, for which the “inhibition (INH)” value in series [2] and in series [4] was “Not Active” throughout. For the same molecule, the values for the IC50 (against Cholinesterase [3]; in series [5]; against Acetylcholinesterase [7]) were 11.5 µM, 59.2 µM and 0.191 µM, respectively. Further, the Ratio IC50 in series [6] was 60.3.
For the molecule `CCCNC(C)C(=O)Nc1c(C)csc1-c1nc(C)no1` (centres undefined), the 50% inhibitory concentration (IC50) is 1260 µM in series [2], 125 µM against Cholinesterase [3] and 0.201 µM at Acetylcholinesterase [7]. Besides, the “inhibition (INH)” value in [4] is listed as “Not Active”. The outcome in series [5] was inactive. Also, the Ratio IC50 in series [6] was 622.
`Cc1cc(NS(=O)(=O)c2ccc(-n3cc(COc4ccccc4-c4nc(-c5ccccc5)no4)nn3)cc2)no1`: the Ratio IC50 on Acetylcholinesterase [1] turned out to be 1.01; in series [6] it was 250. Moreover, the “inhibition (INH)” value in [2] and in [4] was “Not Active” throughout. Moreover, the IC50 was 26.1 µM on Cholinesterase [3], 56.7 µM in series [5] and 0.104 µM against Acetylcholinesterase [7].
As to `OC(CCN1CCCCC1)(c1ccccc1)C1CC2C=CC1C2` (centres undefined) [BIPERIDEN HYDROCHLORIDE], the IC50 in series [4] was determined as 266 µM.
In series [2], `Cc1cc(NS(=O)(=O)c2ccc(-n3cc(COc4ccccc4-c4nc(-c5ccc(C(F)(F)F)cc5)no4)nn3)cc2)no1` gave an IC50 of 273 µM. Also, the inhibition entry at Cholinesterase [3] and at Acetylcholinesterase [7] was “inactive” throughout. Further, the “inhibition (INH)” value in series [4] is “Not Active”. Further, the outcome in [5] was inactive.
On to `Cc1cc(NS(=O)(=O)c2ccc(NC(=O)COc3ccccc3-c3nc(-c4ccccc4)no3)cc2)no1`, for which the figures for the Ratio IC50 (at Acetylcholinesterase [1]; in series [6]) were 1.01 and 283, respectively. In addition, the “inhibition (INH)” value in series [2] and in series [4] was “Not Active” throughout. The IC50 against Cholinesterase [3] was 26.7 µM; against Acetylcholinesterase [7] it was 0.094 µM. For the same molecule, the result in [5] was inactive.
Regarding `CCCNC(C)C(=O)Nc1c(C)csc1-c1nc(Cc2ccccc2)no1` (centres undefined), the Ratio IC50 turned out to be 1.01 on Acetylcholinesterase [1] and 856 in series [6]. The half-inhibitory concentration (IC50) in series [2] came to 197 µM; on Cholinesterase [3], 41.4 µM; in series [4], 74.7 µM; in series [5], 1350 µM; against Acetylcholinesterase [7], 0.048 µM.
Consider `CC(=NNC(=O)COc1ccccc1-c1nc(Cc2ccccc2)no1)c1nnn(-c2ccc(S(N)(=O)=O)cc2)c1C`, for which the “inhibition (INH)” value in [2] and in series [4] was “Not Active” each time. In addition, the inhibition entry at Cholinesterase [3] and on Acetylcholinesterase [7] was “inactive” in each case. In [5], the result was inactive.
